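Each compound was tested at five concentrations against cells in 96-well plates for 48 hours. The concentration for 50% growth inhibition is given as GI50.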 Active and inactive are the calls of the source. No stated cut-off is given here; in the data, active = GI50 up to about 1.1 µM and inactive = higher.
Columns and labels:
Assay in all cases: NCI tumour cell line growth inhibition, 48 h
SK-MEL-5 = system: SK-MEL-5
A498 = system: A498
HCC 2998 = system: HCC 2998
SR = system: SR
SF-295 = system: SF-295
HOP-62 = system: HOP-62
HCT-15 = system: HCT-15
CAKI-1 = system: CAKI-1
UO-31 = system: UO-31
MDA-MB-231 = system: MDA-MB-231
NCI-H460 = system: NCI-H460
ACHN = system: ACHN
Hs-578T = system: Hs-578T
MCF7 = system: MCF7
SW-620 = system: SW-620
SNB-19 = system: SNB-19
HCT-116 = system: HCT-116
SF-539 = system: SF-539
SN12C = system: SN12C
SNB-75 = system: SNB-75

Row | SMILES | GI50 (SK-MEL-5) | GI50 (A498) | GI50 (HCC 2998) | GI50 (SR) | GI50 (SF-295) | GI50 (HOP-62) | GI50 (HCT-15) [µM] | GI50 (CAKI-1) | GI50 (UO-31) | GI50 (MDA-MB-231) | GI50 (NCI-H460) | GI50 (ACHN) | GI50 (Hs-578T) | GI50 (MCF7) | GI50 (SW-620) | GI50 (SNB-19) | GI50 (HCT-116) | GI50 (SF-539) | GI50 (SN12C) | GI50 (SNB-75)
1 | NS(=O)(=O)c1ccc(Nc2c3ccccc3nc3c(C(=O)NC(CO)(CO)CO)cccc23)cc1 | 0.107 µM (active) | 0.224 µM (active) | 0.212 µM (active) | 0.334 µM (active) | 0.294 µM (active) | 0.178 µM (active) | 0.282 | 0.218 µM (active) | 0.171 µM (active) | 0.195 µM (active) | 0.0668 µM (active) | 0.19 µM (active) | 0.154 µM (active) | 0.0143 µM (active) | 0.163 µM (active) | 0.217 µM (active) | 0.144 µM (active) | 0.204 µM (active) | 0.199 µM (active) | 
2 | COC1OC(C)C(NC(=O)OCC(Cl)(Cl)Cl)C2OC(C)(C)OC12 (stereo not drawn) | > 100 µM (inactive) | > 100 µM (inactive) | > 100 µM (inactive) | > 100 µM (inactive) | > 100 µM (inactive) | > 100 µM (inactive) | > 100 | > 100 µM (inactive) | > 100 µM (inactive) | > 100 µM (inactive) | > 100 µM (inactive) | > 100 µM (inactive) | > 100 µM (inactive) | > 100 µM (inactive) | > 100 µM (inactive) | > 100 µM (inactive) | > 100 µM (inactive) | > 100 µM (inactive) | > 100 µM (inactive) | 
3 | Cc1ccc2c(c1)CC1(Cc3cc(C)ccc3C1=O)C2=O | > 100 µM (inactive) | > 100 µM (inactive) | > 100 µM (inactive) | > 100 µM (inactive) | > 100 µM (inactive) | > 100 µM (inactive) | > 100 | > 100 µM (inactive) | > 100 µM (inactive) | > 100 µM (inactive) | > 100 µM (inactive) | > 100 µM (inactive) | > 100 µM (inactive) | > 100 µM (inactive) | > 100 µM (inactive) | > 100 µM (inactive) | > 100 µM (inactive) | > 100 µM (inactive) |  | > 100 µM (inactive)
4 | O=C(NCCCl)NCc1ccccc1 | > 100 µM (inactive) | > 100 µM (inactive) | > 100 µM (inactive) | > 100 µM (inactive) | > 100 µM (inactive) | > 100 µM (inactive) | > 100 | > 100 µM (inactive) | > 100 µM (inactive) | > 100 µM (inactive) | 52.5 µM (inactive) | > 100 µM (inactive) | > 100 µM (inactive) | > 100 µM (inactive) | > 100 µM (inactive) | > 100 µM (inactive) | > 100 µM (inactive) |  | > 100 µM (inactive) | > 100 µM (inactive)
5 | C/C=C/COc1cc(NC(=S)OC(C)C)ccc1Cl.C/C=C\COc1cc(NC(=S)OC(C)C)ccc1Cl | 16.2 µM (inactive) | 16.2 µM (inactive) | 16.1 µM (inactive) | 16.8 µM (inactive) | 20.2 µM (inactive) | 20 µM (inactive) | 17.3 | 4.06 µM (inactive) | 12 µM (inactive) | 23.8 µM (inactive) | 16 µM (inactive) | 17.7 µM (inactive) | 17.7 µM (inactive) | 19.8 µM (inactive) | 17.1 µM (inactive) | 20.7 µM (inactive) | 17.4 µM (inactive) | 19.8 µM (inactive) | 14.2 µM (inactive) | 
6 | CC(C)(C)c1cc(C(=O)C2Cc3ccccc3C(=O)O2)cc(C(C)(C)C)c1O (stereo not drawn) | 12.6 µM (inactive) | 13.5 µM (inactive) |  | 3.59 µM (inactive) | 14.1 µM (inactive) | 13.7 µM (inactive) | 12.4 | 19.3 µM (inactive) | 11.2 µM (inactive) | 12.1 µM (inactive) | 10.9 µM (inactive) | 17.1 µM (inactive) | 29.3 µM (inactive) | 12.5 µM (inactive) | 10.3 µM (inactive) | 11.8 µM (inactive) | 10.2 µM (inactive) | 14.2 µM (inactive) | 11.5 µM (inactive) | 17.3 µM (inactive)
7 | COc1ccc(N2C(=O)/C(=C\c3cc(OC)c(OC)c(OC)c3)S(=O)(=O)C2c2ccccc2)cc1 (stereo not drawn) | 14.2 µM (inactive) | > 100 µM (inactive) | 89.3 µM (inactive) | 11 µM (inactive) | 21.2 µM (inactive) | 48.8 µM (inactive) | 27.7 | 84.7 µM (inactive) | 14.8 µM (inactive) | 34.8 µM (inactive) | 47.6 µM (inactive) | 48.3 µM (inactive) | 58.3 µM (inactive) | 30.2 µM (inactive) | 48.6 µM (inactive) | 18.5 µM (inactive) | 18.8 µM (inactive) | 37.9 µM (inactive) | > 100 µM (inactive) | 
8 | NC1=NC(=O)[C@H](CSCc2ccccc2)N1C(=O)OCc1ccccc1 | > 100 µM (inactive) | > 100 µM (inactive) | > 100 µM (inactive) | > 100 µM (inactive) | > 100 µM (inactive) | > 100 µM (inactive) | > 100 | > 100 µM (inactive) | > 100 µM (inactive) | > 100 µM (inactive) | > 100 µM (inactive) | > 100 µM (inactive) | > 100 µM (inactive) | > 100 µM (inactive) | > 100 µM (inactive) | > 100 µM (inactive) | > 100 µM (inactive) |  | > 100 µM (inactive) | > 100 µM (inactive)
9 | Nc1nc(NNc2cccc(F)c2)cc(=O)[nH]1 | 42.7 µM (inactive) | > 100 µM (inactive) | 35.5 µM (inactive) | 27 µM (inactive) | 33.3 µM (inactive) | 25 µM (inactive) | 42.5 |  | 89.1 µM (inactive) | 42.2 µM (inactive) | 44 µM (inactive) | 43.6 µM (inactive) | 36.8 µM (inactive) | 29.5 µM (inactive) | 31.2 µM (inactive) | 65.2 µM (inactive) | 24 µM (inactive) | > 100 µM (inactive) | 65.8 µM (inactive) | 
10 | CN(C)c1ccc(C(c2ccc(N(C)C)cc2)c2ccc([N+](=O)[O-])cc2)cc1 | > 100 µM (inactive) | > 100 µM (inactive) | > 100 µM (inactive) | 90.6 µM (inactive) | > 100 µM (inactive) | > 100 µM (inactive) | > 100 | > 100 µM (inactive) | > 100 µM (inactive) | > 100 µM (inactive) | > 100 µM (inactive) | > 100 µM (inactive) | > 100 µM (inactive) | > 100 µM (inactive) | > 100 µM (inactive) | > 100 µM (inactive) | > 100 µM (inactive) | > 100 µM (inactive) | > 100 µM (inactive) | 
11 | CC1=CP(=O)(c2c(C(C)C)cc(C(C)C)cc2C(C)C)CCC1Cl (stereo not drawn) | 16.6 µM (inactive) | 15.9 µM (inactive) |  | 0.769 µM (active) | 12.4 µM (inactive) | 17 µM (inactive) | 16 | 16.8 µM (inactive) | 13.9 µM (inactive) | 15.3 µM (inactive) | 16 µM (inactive) | 15.9 µM (inactive) | 27.5 µM (inactive) | 15.4 µM (inactive) | 21.6 µM (inactive) | 14.4 µM (inactive) | 20.1 µM (inactive) | 17.1 µM (inactive) | 17.7 µM (inactive) | 14 µM (inactive)

Source: ChEMBL document CHEMBL1201862, “PubChem BioAssay data set” (2004)
